SMILES strings stand for the structures. Where only a bound is given, the exact number is not on record here.

Sequence of NACHT, LRR and PYD domains-containing protein 3 (Q96P20 whole entry, the tested form may be a part): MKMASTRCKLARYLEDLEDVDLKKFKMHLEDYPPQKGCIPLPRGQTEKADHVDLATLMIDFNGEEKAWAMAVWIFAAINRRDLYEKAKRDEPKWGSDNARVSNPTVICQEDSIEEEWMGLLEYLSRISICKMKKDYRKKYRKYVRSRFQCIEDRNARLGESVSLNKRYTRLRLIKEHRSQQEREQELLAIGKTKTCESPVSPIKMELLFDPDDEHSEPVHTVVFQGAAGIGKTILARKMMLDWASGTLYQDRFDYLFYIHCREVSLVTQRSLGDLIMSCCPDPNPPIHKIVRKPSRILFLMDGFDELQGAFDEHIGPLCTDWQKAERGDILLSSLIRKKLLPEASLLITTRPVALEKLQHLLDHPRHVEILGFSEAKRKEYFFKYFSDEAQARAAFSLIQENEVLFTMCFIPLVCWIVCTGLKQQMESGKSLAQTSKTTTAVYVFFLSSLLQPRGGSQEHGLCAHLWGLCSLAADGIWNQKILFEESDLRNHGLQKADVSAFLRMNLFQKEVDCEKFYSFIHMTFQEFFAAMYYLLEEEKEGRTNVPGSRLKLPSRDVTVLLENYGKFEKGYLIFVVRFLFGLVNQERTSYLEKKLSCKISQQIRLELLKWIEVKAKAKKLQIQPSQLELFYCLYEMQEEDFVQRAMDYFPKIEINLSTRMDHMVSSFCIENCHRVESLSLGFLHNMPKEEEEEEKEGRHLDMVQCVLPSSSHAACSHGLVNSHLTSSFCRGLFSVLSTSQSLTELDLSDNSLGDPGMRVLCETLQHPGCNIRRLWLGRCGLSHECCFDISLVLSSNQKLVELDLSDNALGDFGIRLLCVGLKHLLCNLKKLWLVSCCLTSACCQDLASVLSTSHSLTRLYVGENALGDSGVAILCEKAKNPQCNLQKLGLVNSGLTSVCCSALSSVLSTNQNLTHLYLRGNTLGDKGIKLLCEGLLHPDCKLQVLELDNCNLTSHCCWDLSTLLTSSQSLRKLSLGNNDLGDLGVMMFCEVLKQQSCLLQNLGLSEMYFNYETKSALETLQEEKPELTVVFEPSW

This experiment addresses NACHT, LRR and PYD domains-containing protein 3 (Homo sapiens, UniProt Q96P20). Briefly: Evaluation of NLRP3 Inflammasome Inhibitory Activity Assay. As to the method:
The NLRP3 inflammasome inhibitory activity of test compounds were evaluated CM the basis of the inhibitory activity of the IL-1β, production in THP1-Null cells (Product Number: thp-null, InvivoGen). […] A solution containing a test compound (20 μL/well) was added to test compound-setting wells. […] The supernatant of the culture was cryonically stored (set at −20° C.) until measurement of IL-1β.
By IC50 is commonly meant the point on the concentration scale where inhibition reaches its midpoint. `COC(=O)CC1COCCN1S(=O)(=O)NC(=O)c1coc(Nc2c3c(c(Cl)c4c2CCC4)CCC3)n1` (racemic) [US20230399319, Example 73]: the midpoint of inhibition, the IC50, lay at 130 nM. Next, `CC1CCN(S(=O)(=O)NC(=O)c2coc(Nc3c4c(c(F)c5c3CCC5)CCC4)n2)C1` (centres undefined) [US20230399319, Example 2-008]: 180 nM; `CC1(C)CCN(S(=O)(=O)NC(=O)c2coc(Nc3c4c(c(F)c5c3CCC5)CCC4)n2)C1` [US20230399319, Example 2-009]: 380 nM. As for `Cc1ccc(C(F)(F)F)cc1Nc1nc(C(=O)NS(=O)(=O)N2CCOC3(COC3)C2)co1` [US20230399319, Example 2-017], the figure is 83 nM; as for `Cc1ccc(C(F)(F)F)cc1Nc1nc(C(=O)NS(=O)(=O)N2CCC(S(C)(=O)=O)CC2)co1` [US20230399319, Example 2-018], 50 nM; as for `Cc1ccc(C(F)(F)F)cc1Nc1nc(C(=O)NS(=O)(=O)N2CCC(C)C2)co1` (centres undefined) [US20230399319, Example 2-019], 70 nM. As for `Cc1ccc(C(F)(F)F)cc1Nc1nc(C(=O)NS(=O)(=O)N2CCC(C)(C)C2)co1` [US20230399319, Example 2-020], the figure is 100 nM; as for `Cc1ccc(C(F)(F)F)cc1Nc1nc(C(=O)NS(=O)(=O)N2CCC(F)(F)C2)co1` [US20230399319, Example 2-021], 90 nM.

On to `Cc1ccc(C(F)(F)F)cc1Nc1nc(C(=O)NS(=O)(=O)N2CCC(CS(C)(=O)=O)CC2)co1` [US20230399319, Example 2-022], for which half-maximal inhibition (IC50) was put at 240 nM. `Cc1ccc(C(F)(F)F)cc1Nc1nc(C(=O)NS(=O)(=O)N2CCC(F)(F)CC2)co1` [US20230399319, Example 2-023] came in with a half-maximal inhibitory concentration (IC50) of 130 nM.

For the molecule `Cc1ccc(C(F)(F)F)cc1Nc1nc(C(=O)NS(=O)(=O)N2CCC(C(F)(F)F)CC2)co1` [US20230399319, Example 2-024], 31 nM corresponded to half-maximal inhibition (IC50). As for `CC(C)c1ccc(C(F)(F)F)cc1Nc1nc(C(=O)NS(=O)(=O)N(C)C)co1` [US20230399319, Example 2-025], the IC50 was under 30 nM.

`CC(C)c1ccc(C(F)(F)F)cc1Nc1nc(C(=O)NS(=O)(=O)N2CCOCC2)co1` [US20230399319, Example 2-026] displayed a 50% inhibitory concentration (IC50) of under 30 nM.

In turn, `Cc1cc(Cl)c(C(C)C)cc1Nc1nc(C(=O)NS(=O)(=O)N(C)C)co1` [US20230399319, Example 2-027] gave a half-maximal inhibitory concentration (IC50) of 34 nM. As for `Cc1cc(Cl)c(C(C)C)cc1Nc1nc(C(=O)NS(=O)(=O)N2CCOCC2)co1` [US20230399319, Example 2-028], the figure is under 30 nM. Next, `COC[C@@H]1CCCN1S(=O)(=O)NC(=O)c1coc(Nc2cc(C(F)(F)F)ccc2C)n1` [US20230399319, Example 2-038]: under 30 nM; `Cc1ccc(C(C)C)cc1Nc1nc(C(=O)NS(=O)(=O)N(C)C)co1` [US20230399319, Example 2-040]: 130 nM; `Cc1c(Nc2nc(C(=O)NS(=O)(=O)N(C)C)co2)cc(C(F)(F)F)cc1C(F)(F)F` [US20230399319, Example 2-041]: 340 nM. On to `Cc1ccc(C(F)(F)F)cc1Nc1nc(C(=O)NS(=O)(=O)N(C(C)C)C(C)C)co1` [US20230399319, Example 2-051], for which inhibition was half-maximal at 44 nM (IC50). As for `COC[C@H]1CCCN1S(=O)(=O)NC(=O)c1coc(Nc2cc(C(F)(F)F)ccc2C)n1` [US20230399319, Example 2-052], the figure is 130 nM.

The molecule `Cc1ccc(C(F)(F)F)cc1Nc1nc(C(=O)NS(=O)(=O)N2[C@H](C)CCC[C@@H]2C)co1` [US20230399319, Example 2-053] returned a half-inhibitory concentration (IC50) of 89 nM.

Molecule `CN(C)S(=O)(=O)NC(=O)c1coc(Nc2cc(C(F)(F)F)ccc2C2CC2)n1` [US20230399319, Example 2-067] returned an IC50 of 92 nM.

In turn, `CC(C)c1ccc(C(C)C)c(Nc2nc(C(=O)NS(=O)(=O)N3CCCOCC3)co2)c1` [US20230399319, Example 2-071] displayed a 50% inhibitory concentration (IC50) of 43 nM. As for `CC(C)c1ccc(C(F)(F)F)cc1Nc1nc(C(=O)NS(=O)(=O)N2CCCOCC2)co1` [US20230399319, Example 2-072], the figure is 27 nM; as for `Cc1ccc(C(F)(F)F)cc1Nc1nc(C(=O)NS(=O)(=O)N2CC(F)(F)C2)co1` [US20230399319, Example 2-077], 530 nM; as for `Cc1ccc(C(F)(F)F)cc1Nc1nc(C(=O)NS(=O)(=O)N2CCC2C)co1` (centres undefined) [US20230399319, Example 2-078], 100 nM. As for `Cc1ccc(C(F)(F)F)cc1Nc1nc(C(=O)NS(=O)(=O)N2CCC[C@H]2C(=O)N(C)C)co1` [US20230399319, Example 2-079], the figure is 280 nM; as for `Cc1ccc(C(F)(F)F)cc1Nc1nc(C(=O)NS(=O)(=O)N2CCC[C@@H]2C(=O)N(C)C)co1` [US20230399319, Example 2-080], 930 nM; as for `Cc1ccc(C(C)CC#N)cc1Nc1nc(C(=O)NS(=O)(=O)N(C)C)co1` (centres undefined) [US20230399319, Example 2-096], 1800 nM. Next, `Cc1ccc(C(F)(F)F)cc1Nc1nc(C(=O)NS(=O)(=O)N(C)CC#N)co1` [US20230399319, Example 2-108]: 130 nM; `Cc1ccc(C(F)(F)F)cc1Nc1nc(C(=O)NS(=O)(=O)N2CCC(C#N)CC2)co1` [US20230399319, Example 2-109]: 38 nM; `Cc1ccc(C(F)(F)F)cc1Nc1nc(C(=O)NS(=O)(=O)N(C)CC(=O)N(C)C)co1` [US20230399319, Example 2-110]: 340 nM. With `Cc1ccc(C(C)(C)C)cc1Nc1nc(C(=O)NS(=O)(=O)N2CCCOCC2)co1` [US20230399319, Example 2-112], the concentration for half-maximal inhibition (IC50) was 65 nM. Next, `Cc1ccc(C)c(Nc2nc(C(=O)NS(=O)(=O)N3CCCOCC3)co2)c1C` [US20230399319, Example 2-114]: 340 nM; `Cc1cccc(C)c1Nc1nc(C(=O)NS(=O)(=O)N2CCCOCC2)co1` [US20230399319, Example 2-115]: 1300 nM; `CC(C)c1ccc(C(F)(F)F)cc1Nc1nc(C(=O)NS(=O)(=O)N2CCCN(C)CC2)co1` [US20230399319, Example 2-123]: 210 nM. As for `CC(C)c1ccc(C(F)(F)F)cc1Nc1nc(C(=O)NS(=O)(=O)N2CCCC2CO)co1` (centres undefined) [US20230399319, Example 2-124], the figure is 47 nM; as for `Cc1ccc(C(C)(C)C)cc1Nc1nc(C(=O)NS(=O)(=O)N(C)CCN(C)C)co1` [US20230399319, Example 2-132], 1900 nM. `Cc1ccc(C(F)(F)F)cc1Nc1nc(C(=O)NS(=O)(=O)N(C)Cc2cccnc2)co1` [US20230399319, Example 2-134] came in with a concentration for half-maximal inhibition (IC50) of 79 nM.

For the molecule `CC(C)c1ccc(C(F)(F)F)cc1Nc1ncc(C(=O)NS(=O)(=O)N2CCCOCC2)o1` [US20230399319, Example 2-135], it took 44 nM to reach half-maximal inhibition (IC50). Next, `Cc1ccc(C(F)(F)F)cc1Nc1nc(C(=O)NS(=O)(=O)N2CCCC(C#N)CC2)co1` (centres undefined) [US20230399319, Example 2-141]: 9.7 nM; `Cc1ccc(C(F)(F)F)cc1Nc1nc(C(=O)NS(=O)(=O)N2CCCCCC2)co1` [US20230399319, Example 2-145]: 42 nM; `Cc1ccc(C(F)(F)F)cc1Nc1nc(C(=O)NS(=O)(=O)N2CCCC(=O)CC2)co1` [US20230399319, Example 2-149]: 32 nM.

Take `Cc1ccc(C(F)(F)F)cc1Nc1nc(C(=O)NS(=O)(=O)N2CCCC(CC#N)CC2)co1` (centres undefined) [US20230399319, Example 2-150]: half-maximal inhibition (IC50) was put at 25 nM. Next, `COCC1COCCN(S(=O)(=O)NC(=O)c2coc(Nc3cc(C(F)(F)F)ccc3C)n2)C1` (centres undefined) [US20230399319, Example 2-151]: 64 nM; `Cc1cn(CC(F)(F)F)nc1Nc1nc(C(=O)NS(=O)(=O)N2CCCOCC2)co1` [US20230399319, Example 2-152]: 6100 nM.

Consider `Cc1cn(C2CCCC2)nc1Nc1nc(C(=O)NS(=O)(=O)N2CCCOCC2)co1` [US20230399319, Example 2-153], for which the IC50 turned out to be 2300 nM.

`CCCCS(=O)(=O)N1CCCN(S(=O)(=O)NC(=O)c2coc(Nc3cn(C(C)C)nc3C(C)C)n2)CC1` [US20230399319, Example 2-161]: the concentration for half-maximal inhibition (IC50) worked out at 70 nM. Next, `CC(=O)NCCN(C)S(=O)(=O)NC(=O)c1coc(Nc2cc(C(F)(F)F)ccc2C)n1` [US20230399319, Example 2-162]: 300 nM; `Cc1ccc(C(F)(F)F)cc1Nc1nc(C(=O)NS(=O)(=O)N(C)Cc2ccccc2)co1` [US20230399319, Example 2-163]: 49 nM. Molecule `COCCN(CCOC)S(=O)(=O)NC(=O)c1coc(Nc2cc(C(F)(F)F)ccc2C)n1` [US20230399319, Example 2-164] registered an IC50 of 140 nM. Next, `Cc1ccc(C(F)(F)F)cc1Nc1nc(C(=O)NS(=O)(=O)N(C)C2CC2)co1` [US20230399319, Example 2-165]: 100 nM. Next, `Cc1ccc(C(C)C)cc1Nc1nc(C(=O)NS(=O)(=O)N(C)Cc2ccccn2)co1` [US20230399319, Example 2-167]: 48 nM; `CCC(CC)n1cc(C)c(Nc2nc(C(=O)NS(=O)(=O)N3CCCOCC3)co2)n1` [US20230399319, Example 2-168]: 9800 nM; `Cc1ccc(C(F)(F)F)cc1Nc1nc(C(=O)NS(=O)(=O)N2CCCC(N(C)C)CC2)co1` (centres undefined) [US20230399319, Example 2-173]: 120 nM. Next, `Cc1ccc(C(F)(F)F)cc1Nc1nc(C(=O)NS(=O)(=O)N2CCCC2C)co1` (centres undefined) [US20230399319, Example 2-174]: 55 nM. In turn, `Cc1cn(C(C)C(F)(F)F)nc1Nc1nc(C(=O)NS(=O)(=O)N2CCCOCC2)co1` (centres undefined) [US20230399319, Example 2-178] showed an IC50 of 880 nM. Next, `Cc1ccc(C(F)(F)F)cc1Nc1nc(C(=O)NS(=O)(=O)N2CCCCC2C(F)F)co1` (centres undefined) [US20230399319, Example 2-187]: 110 nM.

On to `Cc1cn(C2CCC2)nc1Nc1nc(C(=O)NS(=O)(=O)N2CCCOCC2)co1` [US20230399319, Example 2-188], for which the half-inhibitory concentration (IC50) is 790 nM.
